We go through 18 compounds from patent publication US9422277B2, “Tricyclic substituted thiadiazine dioxide compounds as BACE inhibitors, compositions and their use” (Merck Sharp & Dohme Corp., priority 2012, dated 2016).

In data set [1] the target is purified human autoBACE-2 (Homo sapiens (Human), UniProt Q9Y5Z0). Kind of data set: BACE-2 Assay (BACE-HTRF assay). The conditions noted are these: Ki calculated from IC50 using the Cheng-Prusoff equation; read-out: BACE2 Ki. It counts as biochemical. Here is the method: Inhibitor IC50s at purified human autoBACE-2 are determined in a time-resolved endpoint proteolysis assay that measures hydrolysis of the QSY7-[…]-Eu-amide FRET peptide substrate (BACE-HTRF assay). BACE-mediated hydrolysis of this peptide results in an increase in relative fluorescence (RFU) at 620 nm after excitation with 320 nm light Inhibitor compounds, prepared at 3× the desired final concentration in 1×BACE assay buffer (20 mM sodium acetate pH 5.0, 10% glycerol, 0.1% Brij-35) supplemented with 7.5% DMSO are pre-incubated with an equal volume of autoBACE-2 enzyme diluted in 1×BACE assay buffer (final enzyme concentration 1 nM) in black 384-well NUNC plates for 30 minutes at 30° C. […] DMSO is present at 5% final concentration in the assay. Following laser excitation of sample wells at 320 nm, the fluorescence signal at 620 nm is collected for 400 ms following a 50 μs delay on a RUBYstar HTRF plate reader (BMG Labtechnologies). Raw RFU data is normalized to maximum (1.0 nM BACE/DMSO) and minimum (no enzyme/DMSO) RFU values. IC50s are determined by nonlinear regression analysis (sigmoidal dose response, variable slope) of percent inhibition data with minimum and maximum values set to 0 and 100 percent respectively. Similar IC50s are obtained when using raw RFU data. The Ki values are calculated from the IC50 using the Cheng-Prusoff equation.
Sequence of purified human autoBACE-2 (Q9Y5Z0 63-473 limits assumed): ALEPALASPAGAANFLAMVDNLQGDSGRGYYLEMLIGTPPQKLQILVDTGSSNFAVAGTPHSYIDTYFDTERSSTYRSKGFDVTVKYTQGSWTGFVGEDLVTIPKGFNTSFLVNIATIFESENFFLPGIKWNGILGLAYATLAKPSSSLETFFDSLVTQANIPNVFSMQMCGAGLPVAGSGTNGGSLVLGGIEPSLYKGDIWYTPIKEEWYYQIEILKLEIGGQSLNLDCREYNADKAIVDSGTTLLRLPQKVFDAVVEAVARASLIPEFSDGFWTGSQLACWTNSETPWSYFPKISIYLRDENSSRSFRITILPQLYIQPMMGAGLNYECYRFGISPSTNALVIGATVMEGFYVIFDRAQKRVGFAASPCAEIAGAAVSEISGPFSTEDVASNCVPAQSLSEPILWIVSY

The target of data set [2] is human P-glycoprotein (Homo sapiens (Human), UniProt P08183). Kind of data set: Efflux by human P-glycoprotein (Pgp Mdr1 efflux ratio). It counts as in vitro ADME.
Sequence of human P-glycoprotein (P08183 whole entry, the tested form may be a part): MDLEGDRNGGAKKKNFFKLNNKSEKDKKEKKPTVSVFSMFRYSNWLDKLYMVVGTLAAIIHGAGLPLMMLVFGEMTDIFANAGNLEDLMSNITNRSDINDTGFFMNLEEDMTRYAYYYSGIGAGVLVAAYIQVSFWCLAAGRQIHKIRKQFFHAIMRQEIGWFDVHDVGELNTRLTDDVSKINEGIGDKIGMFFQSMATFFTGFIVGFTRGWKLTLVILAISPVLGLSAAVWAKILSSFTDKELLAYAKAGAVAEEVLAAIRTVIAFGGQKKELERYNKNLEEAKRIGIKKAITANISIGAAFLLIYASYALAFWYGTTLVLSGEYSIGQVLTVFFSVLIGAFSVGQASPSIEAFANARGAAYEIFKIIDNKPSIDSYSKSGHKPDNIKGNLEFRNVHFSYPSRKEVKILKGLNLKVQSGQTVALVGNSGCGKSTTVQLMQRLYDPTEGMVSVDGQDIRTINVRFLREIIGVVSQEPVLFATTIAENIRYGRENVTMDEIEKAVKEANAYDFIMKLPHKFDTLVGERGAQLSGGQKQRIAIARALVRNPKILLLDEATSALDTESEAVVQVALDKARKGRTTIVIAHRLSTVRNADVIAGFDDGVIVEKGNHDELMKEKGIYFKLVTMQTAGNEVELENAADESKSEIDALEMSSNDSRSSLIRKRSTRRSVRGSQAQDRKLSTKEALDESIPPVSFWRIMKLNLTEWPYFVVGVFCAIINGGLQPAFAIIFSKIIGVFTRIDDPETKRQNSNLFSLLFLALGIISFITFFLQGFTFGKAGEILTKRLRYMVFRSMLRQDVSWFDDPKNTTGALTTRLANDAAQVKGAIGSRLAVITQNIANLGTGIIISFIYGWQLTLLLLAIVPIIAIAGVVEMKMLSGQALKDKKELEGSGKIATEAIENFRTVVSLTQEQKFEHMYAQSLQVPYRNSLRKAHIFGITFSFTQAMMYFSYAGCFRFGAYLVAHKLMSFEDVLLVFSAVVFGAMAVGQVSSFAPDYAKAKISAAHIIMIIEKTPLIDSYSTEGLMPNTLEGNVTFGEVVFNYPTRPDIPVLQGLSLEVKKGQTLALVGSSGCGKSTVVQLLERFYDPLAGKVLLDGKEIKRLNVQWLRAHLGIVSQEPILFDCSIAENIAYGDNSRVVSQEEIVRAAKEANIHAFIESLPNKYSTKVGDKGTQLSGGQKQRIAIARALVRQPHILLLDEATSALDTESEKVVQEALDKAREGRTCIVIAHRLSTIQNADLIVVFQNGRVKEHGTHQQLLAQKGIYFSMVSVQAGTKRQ
The target in data set [3] is soluble human BACE1 catalytic domain (Homo sapiens (Human), UniProt P56817). Kind of data set: BACE1 HTRF FRET Assay. It counts as biochemical. The conditions noted are these: Ki calculated from IC50 using the Cheng-Prusoff equation. An excerpt:
A homogeneous time-resolved FRET assay can be used to determine IC50 values for inhibitors of the soluble human BACE1 catalytic domain. This assay monitors the increase of 620 nm fluorescence that resulted from BACE1 cleavage of an APPswedish APP^swe mutant peptide FRET substrate (QSY7-[…]-Europium-amide). This substrate contains an N-terminal QSY7 moiety that serves as a quencher of the C-terminal Europium fluorophore (620 nm Em). In the absence of enzyme activity, 620 nm fluorescence is low in the assay and increased linearly over 3 hours in the presence of uninhibited BACE1 enzyme Inhibition of BACE1 cleavage of the QSY7-APP^swe-Eu substrate by inhibitors is manifested as a suppression of 620 nm fluorescence.
Reactions are initiated by addition of 10 μl of 600 nM QSY7-APP^swe-Eu substrate (200 nM final) to give a final reaction volume of 30 μl in a 384 well Nunc HTRF plate. The reactions are incubated at 30° C. for 1.5 hours. The 620 nm fluorescence is then read on a Rubystar HTRF plate reader (BMG Labtechnologies) using a 50 millisecond delay followed by a 400 millisecond acquisition time window Inhibitor IC50 values are derived from non-linear regression analysis of concentration response curves.

Sequence of soluble human BACE1 catalytic domain (P56817 75-416): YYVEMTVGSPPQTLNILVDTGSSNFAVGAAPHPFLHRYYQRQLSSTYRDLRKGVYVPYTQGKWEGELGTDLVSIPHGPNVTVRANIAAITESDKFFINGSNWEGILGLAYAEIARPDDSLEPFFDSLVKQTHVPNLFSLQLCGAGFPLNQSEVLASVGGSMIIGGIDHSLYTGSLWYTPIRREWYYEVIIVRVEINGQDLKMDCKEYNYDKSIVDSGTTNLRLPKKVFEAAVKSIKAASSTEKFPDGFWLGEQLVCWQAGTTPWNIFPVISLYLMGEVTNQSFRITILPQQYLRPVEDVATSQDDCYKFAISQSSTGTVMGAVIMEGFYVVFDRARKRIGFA

For orientation: Ki means a dissociation constant, usually derived from enzyme kinetics or from competition with a known ligand. Consider `CN1C(=N)N[C@](C)(c2sc(-c3nnc(-c4ccccc4)o3)cc2Cl)CS1(=O)=O` [Example 20], for which the Ki in data set [1] was 7.76 nM; in data set [3], 106 nM. The “Pgp Mdr1 ER” value in data set [2] was 1.3.

With `CN1C(=N)N[C@](C)(c2sc(-c3nnc(-c4ccc(Cl)cc4)o3)cc2F)CS1(=O)=O` [Example 19], the inhibition constant (Ki) in data set [1] was 13.6 nM; in data set [3], 31.9 nM. The “Pgp Mdr1 ER” value in data set [2] came out at 1.0.

Regarding `CN1C(=N)N[C@](C)(c2sc(-c3nnc(-c4ccc(Cl)cc4)o3)cc2Cl)CS1(=O)=O` [Example 16], the inhibition constant (Ki) was 13.8 nM in data set [1] and 28.8 nM in data set [3]. Moreover, the “Pgp Mdr1 ER” value in data set [2] came out at 1.1.

For `COc1ccc(-c2nnc(-c3cc(Cl)c([C@]4(C)CS(=O)(=O)N(C)C(=N)N4)s3)o2)cc1` [Example 17], the Ki in data set [1] was 34.6 nM; in data set [3], 38.6 nM. The “Pgp Mdr1 ER” value in data set [2] amounted to 1.0.

Take `CN1C(=N)N[C@](C)(c2sc(-c3nnc(-c4ccc(C(F)(F)F)cc4)o3)cc2Cl)CS1(=O)=O` [Example 18]: the inhibitory constant (Ki) in data set [1] was 155 nM; in data set [3] it was 58.9 nM. Further, in data set [2], the “Pgp Mdr1 ER” value amounted to 0.7.

For `CN1C(=N)N[C@](C)(c2sc(-c3nnc(-c4ccc(-c5ccon5)cc4)o3)cc2Cl)CS1(=O)=O` [Example 76], the Ki in data set [1] was 243 nM; in data set [3], 108 nM.

As to `CN1C(=N)N[C@](C)(c2sc(-c3nnc(-c4ccc(-n5cccn5)cc4)o3)cc2Cl)CS1(=O)=O` [Example 71], the inhibition constant Ki in data set [1] is 181 nM; in data set [3], 155 nM.

With `CN1C(=N)N[C@](C)(c2sc(-c3nnc(-c4ccc(OCc5ccccc5)cc4)o3)cc2Cl)CS1(=O)=O` [Example 63], the Ki is 527 nM in data set [1] and 227 nM in data set [3].

Take `CN1C(=N)N[C@](C)(c2cc(-c3nnc(C4Cc5ccccc5C4)o3)ccc2F)CS1(=O)=O` [Example 52]: the Ki in data set [1] is 2680 nM; in data set [3], 7690 nM.

With `CN1C(=N)N[C@](C)(c2sc(-c3nnc(-c4cnn5ccccc45)o3)cc2Cl)CS1(=O)=O` [Example 35], the Ki in data set [1] was 450 nM; in data set [3], 2370 nM.

As for `CN1C(=N)N[C@](C)(c2cc(-c3nnc(-c4ncco4)o3)ccc2F)CS1(=O)=O` [Example 53], the Ki was 186 nM in data set [1] and 3420 nM in data set [3].

Turning to `CCCOc1ccc(-c2nnc(-c3cc(Cl)c([C@]4(C)CS(=O)(=O)N(C)C(=N)N4)s3)o2)cc1` [Example 62], the figures for the Ki in data set [1] and in data set [3] were 313 nM and 84.2 nM, respectively.

Consider `CN1C(=N)N[C@](C)(c2sc(-c3nnc(-c4ccc(-n5cnnn5)cc4)o3)cc2Cl)CS1(=O)=O` [Example 70], for which the Ki in data set [1] is 1350 nM; in data set [3] it was 180 nM.

In the case of `CN1C(=N)N[C@](C)(c2sc(-c3nnc(-c4ccc(F)cc4)o3)cc2Cl)CS1(=O)=O` [Example 22], the results for the Ki in data set [1] and in data set [3] were 13 nM and 65.5 nM, respectively. Also, the “Pgp Mdr1 ER” value in data set [2] was found to be 1.4.

Turning to `CN1C(=N)N[C@](C)(c2sc(-c3nnc(-c4ccn(C)n4)o3)cc2Cl)CS1(=O)=O` [Example 46], the Ki in data set [1] was 130 nM; in data set [3], 1140 nM.

Take `CN1C(=N)N[C@](C)(c2sc(-c3nnc(-c4cncnc4)o3)cc2Cl)CS1(=O)=O` [Example 39]: the Ki is 1660 nM in data set [1] and 5400 nM in data set [3].

With `CN1C(=N)N[C@](C)(c2sc(-c3ccc(C4=NCCO4)[nH]3)cc2Cl)CS1(=O)=O` [Example 6], the values for the Ki in data set [1] and in data set [3] were 69 nM and 270 nM, respectively.

As for `CC(C)c1ccc(-c2nnc(-c3cc(Cl)c([C@]4(C)CS(=O)(=O)N(C)C(=N)N4)s3)o2)cc1` [Example 56], the Ki in data set [1] is 889 nM; in data set [3], 359 nM.
